{"source": "patent US4382888A", "about": "“Tryptophan derivative and process for production thereof” (Ajinomoto Company Incorporated, priority 1978, dated 1983)", "key": {"[1]": {"target": "thermolysin (Bacillus thermoproteolyticus, UniProt P00800)", "sequence (P00800 233-548)": "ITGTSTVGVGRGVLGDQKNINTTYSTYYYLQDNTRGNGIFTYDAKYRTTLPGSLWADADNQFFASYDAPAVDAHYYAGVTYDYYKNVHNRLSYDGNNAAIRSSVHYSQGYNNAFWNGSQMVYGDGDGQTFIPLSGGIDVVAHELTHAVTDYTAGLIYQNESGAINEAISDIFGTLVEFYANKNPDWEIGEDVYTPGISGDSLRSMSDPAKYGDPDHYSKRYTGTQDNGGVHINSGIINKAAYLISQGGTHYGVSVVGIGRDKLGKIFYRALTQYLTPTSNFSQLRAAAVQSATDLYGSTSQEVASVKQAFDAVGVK", "assay": "inhibitory activity against thermolysin (casein digestion, Folin reagent)", "assay_type": "biochemical, genus Bacillus", "procedure": "(§1) A mixture of 0.25 ml of sample solution in 0.05 M phosphate buffer at pH 7.5 and 0.25 ml of thermolysin solution (20 μg/ml in the same buffer was incubated for 10 minutes at 37° C. The mixture was added with 1.5 ml of 1.33% Hammarsten casein solution in 0.1M phosphate buffer (pH 7.0) and incubated for 10 minutes at 37° C. By the addition of 2 ml of 0.44 M trichloroacetic acid the reaction was stopped. After standing for 30 minutes at 37° C., the reaction mixture was filtered. To 1.0 ml of the filtrate 5 ml of 0.55 M Na2 CO3 and 1 ml of 2 times diluted Folin-Ciocaltean reagent were added. After standing for 60 minutes at 37° C., the absorbance (Is) was measured at 660 mμ. The blank value (Ib) was taken by carrying out the reaction using 0.25 ml of 0.05M phosphate buffer (pH 7.5) instead of thermolysin. […] Inhibition rate against enzyme activity is calculated by the following equation: [formula] Now, inhibitory activity against metallo proteinase produced by Pseudomonas aeruginosa can be measured in the same manner as above wherein amounts of enzyme used is established so as to have following value. A value of (Es-Eb) according to method for measuring inhibitory activity is 0.6 wherein cell length used for the measurement of absorbance is 1 cm."}, "[2]": {"test_system": "metallo proteinase produced by Pseudomonas aeruginosa", "assay": "inhibitory activity against metallo proteinase of Pseudomonas aeruginosa (casein digestion)", "assay_type": "biochemical", "procedure": "as §1"}, "[3]": {"test_system": "metallo proteinase produced by Aspergillus oryzae", "assay": "inhibitory activity against metallo proteinase of Aspergillus oryzae", "assay_type": "biochemical"}, "[4]": {"target": "pepsin (Sus scrofa, UniProt P00791)", "sequence (P00791 60-385)": "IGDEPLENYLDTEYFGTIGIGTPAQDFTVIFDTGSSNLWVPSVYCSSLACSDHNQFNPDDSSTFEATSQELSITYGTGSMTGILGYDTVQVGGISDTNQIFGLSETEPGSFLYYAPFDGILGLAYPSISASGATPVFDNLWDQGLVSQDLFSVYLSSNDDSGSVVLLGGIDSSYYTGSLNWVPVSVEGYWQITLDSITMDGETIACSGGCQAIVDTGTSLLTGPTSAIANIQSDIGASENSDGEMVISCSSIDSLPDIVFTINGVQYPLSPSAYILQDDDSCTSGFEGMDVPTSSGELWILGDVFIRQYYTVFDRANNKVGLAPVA", "assay": "inhibitory activity against pepsin", "assay_type": "biochemical"}, "[5]": {"target": "T1, trypsin (Bos taurus, UniProt P00760)", "T1 sequence (P00760 24-246)": "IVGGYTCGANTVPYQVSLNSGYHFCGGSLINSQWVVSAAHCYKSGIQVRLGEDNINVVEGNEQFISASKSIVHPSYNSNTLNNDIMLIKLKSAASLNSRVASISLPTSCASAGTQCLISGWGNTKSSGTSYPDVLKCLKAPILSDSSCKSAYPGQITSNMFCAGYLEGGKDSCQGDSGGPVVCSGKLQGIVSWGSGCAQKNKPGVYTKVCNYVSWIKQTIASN", "assay": "inhibitory activity against trypsin", "assay_type": "biochemical"}, "[6]": {"target": "chymotrypsin (Bos taurus, UniProt P00766)", "assay": "inhibitory activity against chymotrypsin", "assay_type": "biochemical"}, "[7]": {"test_system": "subtilis", "assay": "inhibitory activity against subtilis", "assay_type": "biochemical"}, "[8]": {"target": "T2, papain (Carica papaya, UniProt P00784)", "T2 sequence (P00784 134-345)": "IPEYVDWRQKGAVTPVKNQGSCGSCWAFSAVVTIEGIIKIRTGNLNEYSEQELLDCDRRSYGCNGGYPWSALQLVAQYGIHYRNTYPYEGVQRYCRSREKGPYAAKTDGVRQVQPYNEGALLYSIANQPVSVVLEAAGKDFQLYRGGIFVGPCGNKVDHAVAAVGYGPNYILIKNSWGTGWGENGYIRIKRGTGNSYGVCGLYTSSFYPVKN", "assay": "inhibitory activity against papain", "assay_type": "biochemical"}, "[9]": {"assay": "Solubility", "assay_type": "physicochemical"}, "[10]": {"assay": "Stability in aqueous solution", "assay_type": "physicochemical"}, "[11]": {"conditions": "amount of compound in the assay"}}, "data": [{"smiles": "CC(C)C[C@H](NP(=O)(O)OC1O[C@@H](C)[C@@H](O)[C@@H](O)[C@H]1O)C(=O)N[C@@H](Cc1c[nH]c2ccccc12)C(=O)O", "note": "(stereo partly drawn) [novel tryptophan derivative, N-(6-deoxy-L-talosyloxy hydroxyphosphinyl)-L-leucyl-L-tryptophan]", "values": [{"measurement": "inhibiting activity (in words)", "setting": "[1]", "result": "strongly inhibits"}, {"measurement": "Amount necessary for inhibiting 50% of the enzyme activity", "setting": "[1]; [11]", "result": 0.35, "unit": "µg"}, {"measurement": "inhibiting activity (in words)", "setting": "[2]", "result": "strongly inhibits"}, {"measurement": "Amount necessary for inhibiting 50% of the enzyme activity", "setting": "[2]; [11]", "result": 4, "unit": "µg"}, {"measurement": "inhibiting activity (in words)", "setting": "[3]", "result": "inhibits"}, {"measurement": "inhibiting activity (in words)", "setting": "[4]", "result": "does not inhibit"}, {"measurement": "inhibiting activity (in words)", "setting": "[5]", "result": "does not inhibit"}, {"measurement": "inhibiting activity (in words)", "setting": "[6]", "result": "does not inhibit"}, {"measurement": "inhibiting activity (in words)", "setting": "[7]", "result": "does not inhibit"}, {"measurement": "inhibiting activity (in words)", "setting": "[8]", "result": "does not inhibit"}, {"measurement": "Solubility", "setting": "[9]; benzene", "result": "Insoluble"}, {"measurement": "Solubility", "setting": "[9]; chloroform", "result": "Insoluble"}, {"measurement": "Solubility", "setting": "[9]; ethanol", "result": "Soluble"}, {"measurement": "Solubility", "setting": "[9]; ether", "result": "Insoluble"}, {"measurement": "Solubility", "setting": "[9]; hexane", "result": "Insoluble"}, {"measurement": "Solubility", "setting": "[9]; methanol", "result": "Soluble"}, {"measurement": "Solubility", "setting": "[9]; water", "result": "Soluble"}, {"measurement": "Stability", "setting": "[10]; acidic aqueous solution", "result": "Unstable"}, {"measurement": "Stability (remaining activity)", "setting": "[10]; standing for 24 hours at pH 1", "result": "Activity is lost completely"}, {"measurement": "Stability", "setting": "[10]; weak acidic, neutral, or alkaline aqueous solution", "result": "Stable"}]}]}
